Assay results as given in patent US20220287995A1, “COMPOSITIONS AND METHODS FOR INHIBITING BACTERIAL VIRULENCE AND FLIM-BASED DEVICE AND METHOD FOR ANTIBIOTIC SUSCEPTIBILITY TESTING” (THE REGENTS OF THE UNIVERSITY OF CALIFORNIA, priority 2019, published 2022).

System: P. aeruginosa
Assay: Surface density measurement of P. aeruginosa from virulence assays
Assay type: cell-based, Pseudomonas aeruginosa
Details: virulence assays after 6 hours of growth, carbon source 0.2%
Description: The density of P. aeruginosa cells on surface was measured as described previously (1) using amoebae cell viability phase contrast images that were acquired using a 10× or 20× objective. The IJ_Isodata algorithm (ImageJ 1.52q) was applied to phase contrast images to construct cell boundary masks. The cell density was computed by dividing the area covered by P. aeruginosa by the total area of the image.

SMILES: O=C(O)CC(O)(CC(=O)O)C(=O)O [citrate]
- surface density of P. aeruginosa: did not decrease the surface density
